Data: patent US12415819B2, “Cu- and Ni-catalyzed decarboxylative borylation reactions” (The Scripps Research Institute, priority 2017, dated 2025)
Where two headings read alike, the source gives them in different places. Residues, ends and D or L forms follow the SMILES beside them. *: point of attachment. Moc = COC(=O)*

Assays:
[1] = target: human neutrophil elastase (Homo sapiens (Human), UniProt P08246); test: Elastase inhibition assay, purified human neutrophil elastase; assay type: biochemical; conditions: for IC50 / LipE: Purified NHE; for IC50: 30 minutes incubation at room temperature, 100 μM substrate
Experimental: Serially diluted compounds in DMSO were dispensed into a 384-well black opaque plate by Echo dispenser. 0.1 μg/mL human neutrophil elastase (EPC, Catalog# SE563, Owensville, Ms.) or human sputum diluted with assay buffer (100 mM HEPES, 500 mM NaCl, 0.02% Tween 20) was added into the 384-well plate, and was incubated with different compounds at different concentrations for 30 minutes at room temperature. The final concentration of DMSO in the reaction was 0.1%. […] Slope of fluorescence intensity vs. time representing the Vmax of enzyme activity was calculated with MARS software. % relative inhibition was calculated as: […]
(§1) IC50 was calculated based on the % relative inhibition curve using log(agonist) vs. response (three parameters) method with Prism software. All experiments were performed in triplicate for at least three independent times.

[2] = target: elastase in COPD patient sputum (Homo sapiens (Human), UniProt P08246); test: Elastase inhibition assay in COPD patient sputum; assay type: biochemical
Experimental: (§2) Serially diluted compounds in DMSO were dispensed into a 384-well black opaque plate by Echo dispenser. 0.1 μg/mL human neutrophil elastase (EPC, Catalog# SE563, Owensville, Ms.) or human sputum diluted with assay buffer (100 mM HEPES, 500 mM NaCl, 0.02% Tween 20) was added into the 384-well plate, and was incubated with different compounds at different concentrations for 30 minutes at room temperature. The final concentration of DMSO in the reaction was 0.1%. Elastase substrate MeOSuc-AAPV-AMC (Bachem, Catalog #I-1270, Torrance, CA) of 100 μM final concentration was then added into the reaction system just before enzyme kinetics were read on PheraSTAR plate reader at excitation of 380 nm and emission of 460 nm with a 3-minutes interval for 30 minutes in total. Slope of fluorescence intensity vs. time representing the Vmax of enzyme activity was calculated with MARS software. % relative inhibition was calculated as: […]
as §1
(§3) Human sputum was purchased from Discovery Life Sciences (Los Osos, CA). Human sputum was diluted 1:10 in volume with assay buffer (100 mM HEPES, 500 mM NaCl, 0.02% Tween 20) followed by vigorous vortexing. The 1:10 diluted human sputum was further diluted into 1:30, 1:90, 1:270, 1:810, and 1:2430. The elastase concentration was determined by elastase inhibition assay as described above. Specifically, a series of standards of human neutrophil elastase (starting at 2 μg/mL and further diluted 1:2 in volume) were prepared in the assay buffer. The samples and standards were plated in a 384-well black solid bottom plate; the substrate MeOSuc-AAPV-AMC of 100 μM final concentration was then added into the reaction system just before enzyme kinetics were read on PheraSTAR plate reader as mentioned above. The slope of enzymatic kinetic reading was calculated by MARS software. The elastase levels of the human sputum were calculated based on the standard curve.

[3] = target: elastase in CF patient sputum (Homo sapiens (Human), UniProt P08246); test: Elastase inhibition assay in CF patient sputum; assay type: biochemical; conditions: for IC50 / LipE: CF sputum
Experimental: as §2, §1, §3

[4] = Mouse Liver Microsomal Metabolic Stability Assay; conditions: for Remaining (*NCF = 60min): MLM 0.5, no co-factor; for Remaining (T = 60 min): MLM 0.5, with NADPH regenerating system
Experimental: 100 mM potassium phosphate buffer, pH 7.4. • 2. 10 mM MgCl2 • 3) Compound Dilution:
Intermediate solution was prepared by diluting 5 μL of compound or control stock solution (10 mM in DMSO) with DMSO (45 μL) and 1:1 Methanol/Water (450 μL) (concentration=100 μM, 45% MeOH). Working solution was prepared by diluting 50 μL of the intermediate solution with 450 μL of 100 mM potassium phosphate buffer, pH=7.4 (centration=10 μM, 4.5% MeOH). • 4) NADPH regenerating system (final Isocitric dehydrogenase concentration=1 unit/mL at incubation) comprised:
10 μL/well of compound working solution or control working solution was added to all plates (T0, T5, T10, T20, T30, T60, NCF60) except the matrix blank. 80 μL/well of microsome solution was added to every plate. The mixtures of microsome solution and compound were incubated at 37° C. for about 10 min. 10 μL/well of NADPH regenerating system (pre-warmed to 37° C.) was then added to every plate to start the reaction. […] For NCF60 (abbreviation of no co-factor) no NADPH regenerating system was added, but was replaced by 10 μL/well of potassium phosphate buffer (100 mM, pH 7.4); the resulting mixture was incubated at 37° C. for 1 h.
The reactions were then terminated with the stop solution (cold at 4° C.) containing 100 ng/mL Tolbutamide and 100 ng/mL Labetalol ([…]). The sampling plates were shaken for approximately 10 minutes, then were centrifuged at 4000 rpm for 20 min at 4° C. While centrifuging, 8 new 96 well plates were loaded with […] of HPLC grade water. 100 μL of supernatant was finally added to 300 μL of HPLC grade water and mixed for LC/MS/MS analysis.
The equation of first order kinetics was used to calculate T1/2 and CIint(mic): […]

[5] = Caco-2 Permeability Assay; conditions: human
Experimental: Digoxin, fenoterol, and propranol were used as standards respectively. Transport Method:
The transport buffer used in the study was HBSS with 10 mM HEPES at pH 7.40±0.05. Compounds were tested at 2 μM bi-directionally in duplicates. Digoxin was tested at […] bi-directionally in a duplicate, while fenoterol and propranolol were tested at 2 μM in A(apical) to B (basolateral) direction in duplicates. The final DMSO concentration was adjusted to less than 1%. The plate was incubated for 2 hours in a CO2 incubator at 37±1° C., with 5% CO2 at saturated humidity without shaking. All samples, after mixing with acetonitrile containing internal standard, were centrifuged at 4000 rpm for 20 min. Subsequently,100 μL supernatant solution was diluted with 100 μL distilled water for LC/MS/MS analysis. Concentrations of test and control compounds in starting solution, donor solution, and receiver solution were quantified by LC/MS/MS methodologies, using peak area ratio of analyte/internal standard. After transport assay, lucifer yellow rejection assay was applied to determine the Caco-2 cell monolayer integrity.
Data analysis: The apparent permeability coefficient Papp (cm/s) was calculated using the equation:
The efflux ratio was calculated using the equation: Efflux ratio=Papp(BA)/Papp(AB)
Percent recovery was calculated using the equation: % Recovery=100×[(Vr·Cr)+(Vd·Cd)]/(Vd·C0) Where Vd is the volume in the donor chambers (0.075 mL on the apical side, 0.25 mL on the basolateral side); Cd and Cr are the final concentrations of transport compound in donor and receiver chambers, respectively.

Plasma Stability Assay = assay type: in vitro ADME, mouse; conditions: CD-1 Mouse Plasma
Experimental: Propantheline was used as the reference compound in this assay; all stock solutions were stored at −40° C. before use. • 2) Test system: CD-1 Mouse Plasma from a minimum of 20 male individuals were obtained from BioreclamationlVT (Catalog #: […]2-M; Batch #: MSE244515). EDTA-K2 was used as the anticoagulant. Procedure:
The frozen plasma was thawed in a water bath at 37° C. prior to the experiments. The plasma was centrifuged at 4000 rpm for 5 min and the clots were removed if necessary.
The pH was adjusted to 7.4±0.1 as necessary. An intermediate solution (1 mM) was prepared and a 100 μM dosing solution was prepared by diluting 10 μL of the intermediate solution with 90 μL 45% MeOH/H2O. Duplicate of test samples were made by mixing 98 μL of blank plasma with 2 μL of dosing solution (100 μM) to achieve the final concentration of 2 μM. Samples were incubated at 37° C. At each time point (0, 10, 30, 60, and 120 min), 400 μL of stop solution (consisting of 200 ng/mL tolbutamide and 20 ng/mL buspirone in 50% MeOH/CH3CN) was added to precipitate protein under thorough mixing. The sample plates were then centrifuged at 4,000 rpm for 10 min. An aliquot of supernatant (100 μL) was transferred from each well and mixed with 200 of μL ultrapure water. The samples were shaken at 800 rpm for about 10 min before LC-MS/MS analysis.
Data analysis: The % remaining of test compound after incubation in plasma was calculated using following equation: Remaining=100×(PAR at Tn/PAR at T0) where PAR is the peak area ratio of analyte versus internal standard (IS) and The appointed incubation time points are T0 (0 min), Tn (n=0, 10, 30, 60, 120 min).
LC-MS/MS condition: Each compound was analyzed by LC/MS using an ACE 5-phenyl 50×2.1 mm column (Part No. ACE-125-0502) with 0.1% formic acid in water and 0.1% formic acid in acetonitrile as the mobile phases. Tobultamide was used as the internal standard. Data collected were processed by Analyst 1.6.2 software and MultiQuant 3.0.2 software.

[6] = mouse, liver microsomes, pH 7.4

Chain of human neutrophil elastase (P08246 30-247): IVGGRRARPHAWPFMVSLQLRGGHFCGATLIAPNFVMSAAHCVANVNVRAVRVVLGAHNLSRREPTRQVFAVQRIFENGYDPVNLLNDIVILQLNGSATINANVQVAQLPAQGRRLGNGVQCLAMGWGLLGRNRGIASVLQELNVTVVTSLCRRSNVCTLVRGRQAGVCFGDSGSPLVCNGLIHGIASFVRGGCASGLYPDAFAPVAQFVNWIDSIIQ
Chain of elastase in COPD patient sputum (P08246 30-267): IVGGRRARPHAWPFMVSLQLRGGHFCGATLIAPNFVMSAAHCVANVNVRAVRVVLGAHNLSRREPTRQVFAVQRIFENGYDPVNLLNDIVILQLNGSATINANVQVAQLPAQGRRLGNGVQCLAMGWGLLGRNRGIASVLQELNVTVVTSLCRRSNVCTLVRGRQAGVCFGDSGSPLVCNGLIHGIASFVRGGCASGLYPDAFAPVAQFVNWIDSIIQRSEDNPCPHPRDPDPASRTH
Chain of elastase in CF patient sputum (P08246 30-267): as above

| Compound | LipE [1] | IC50 ([1]; read-out: IC50) | IC50 [2] | LipE [2] | IC50 [3] | LipE [3] | also measured |
| --- | --- | --- | --- | --- | --- | --- | --- |
| COC(=O)N[C@H](C(=O)N1CCC[C@H]1C(=O)N[C@H](C(=O)O)C(C)C)C(C)C [Compound 50b, (methoxycarbonyl)-L-valyl-L-prolyl-L-valine] (Moc-Val-Pro-Val-OH) | – | – | – | – | – | – | inhibitory activity against HNE (in words) [1]: devoid of any inhibitory activities; IC50 [1]: Not Active |
| Cc1c(-c2ccnn2C)cc(C(=O)NCc2ccc(S(C)(=O)=O)cn2)c(=O)n1-c1cccc(C(F)(F)F)c1 [Compound 53] | 7.32 | 2.62 ± 0.39 nM | 2.98 ± 0.82 nM | 7.22 | 4.08 ± 0.39 nM | 7.11 | – |
| CC1=C(C#N)[C@@H](c2ccc(C#N)cc2S(C)(=O)=O)N(C)C(=O)N1c1cccc(C(F)(F)F)c1 [Compound 54, BAY 85-8501] | 6.76 | – | – | 6.85 | – | 5.87 | inhibitory activity in patient sputum versus purified HNE (in words) ([3]; sputum samples of CF and COPD patients): potencies diminished drastically |
| COC(=O)C1=C(C)N(c2cccc(C(F)(F)F)c2)c2n[nH]c(=O)n2C1c1ccc(C#N)cc1 (stereo not shown) [Compound 56] | 4.59 | 1.34 ± 0.13 nM | 1.12 ± 0.04 nM | 4.67 | 2.68 ± 0.04 nM | 4.29 | – |
| COC(=O)C1=C(C)N(c2cccc(C(F)(F)F)c2)c2nn(CC(=O)N(C)CCC[N+](C)(C)C)c(=O)n2C1c1ccc(C#N)cc1 (stereo not shown) [Compound 57] | 9.46 | 0.99 ± 0.13 nM | 0.97 ± 0.14 nM | 9.45 | 2.04 ± 0.08 nM | 9.16 | – |
| O=C(O)Cc1ccccc1Nc1c(Cl)cccc1Cl [Diclofenac] | – | – | – | – | – | – | Remaining (*NCF = 60min) [4]: 88.0%; Remaining (T = 60 min) [4]: 43.0%; Extraction ratio ([4]; MLM 0.5, Qh 90.0 mL/min/Kg): 0.5; CLint scaled at 1 μM [4, 6]: 108 mL/min/kg; microsomal CLint at 1 μM [4, 6]: 27.2 µL/min/mg; half-life at 1 μM ([4]; mouse, microsomes, pH 7.4): 51 min |
| C[C@H]1O[C@@H](O[C@H]2[C@@H](O)C[C@H](O[C@H]3[C@@H](O)C[C@H](O[C@H]4CC[C@@]5(C)[C@H](CC[C@@H]6[C@@H]5C[C@@H](O)[C@]5(C)[C@@H](C7=CC(=O)OC7)CC[C@]65O)C4)O[C@@H]3C)O[C@@H]2C)C[C@H](O)[C@@H]1O [Digoxin] | – | – | – | – | – | – | Papp A→B at 120 min, 2 μM ([5]; Caco-2, pH 7.4): < 0.02 ×10⁻⁶ cm/s; Papp B→A at 120 min, 2 μM ([5]; Caco-2, pH 7.4): 8.5 ×10⁻⁶ cm/s; efflux ratio at 2 h, 2 μM ([5]; Caco-2, pH 7.4): > 364; recovery at 2 h, 2 μM ([5]; Caco-2, pH 7.4, Mean Recovery % A to B): < 91.2%; recovery at 2 h, 2 μM ([5]; Caco-2, pH 7.4, Mean Recovery % B to A): 100% |
| CC(Cc1ccc(O)cc1)NCC(O)c1cc(O)cc(O)c1 (stereo not shown) [Fenoterol] | – | – | – | – | – | – | Papp A→B at 120 min, 2 μM ([5]; Caco-2, pH 7.4): 0.24 ×10⁻⁶ cm/s; recovery at 2 h, 2 μM ([5]; Caco-2, pH 7.4): 93.4% |
| CC(C)[N+](C)(CCOC(=O)C1c2ccccc2Oc2ccccc21)C(C)C [Propantheline] | – | – | – | – | – | – | % Remaining (mean) (Plasma Stability Assay; 0 min, 2 μM, 37° C.): 100.0%; % Remaining (mean) (Plasma Stability Assay; 10 min): 76.8%; % Remaining (mean) (Plasma Stability Assay; 30 min): 39.1%; % Remaining (mean) (Plasma Stability Assay; 60 min): 21.7%; % Remaining (mean) (Plasma Stability Assay; 120 min): 7.7% |
| C[C@]12CC[C@H]3[C@@H](CCC4=CC(=O)CC[C@@]43C)[C@@H]1CC[C@@H]2O [Testosterone] | – | – | – | – | – | – | CLint(liver) ([4]; MLM 0.5): 2365.5 mL/min/kg; Remaining (*NCF = 60min) [4]: 70.3%; Remaining (T = 60 min) [4]: 0.0%; half-life at 1 μM ([4]; mouse, microsomes, pH 7.4): 2.3 min; microsomal CLint ([4]; mouse, microsomes, pH 7.4): 597 µL/min/mg |
| POL6014 [Compound 55] | – | 0.093 ± 0.008 nM | 0.051 ± 0.004 nM | 18.8 | 0.48 ± 0.03 nM | 17.8 | – |
